Data published in patent US20210177722A1, “Phytic Acid Ester Derivative” (NATIONAL UNIVERSITY CORPORATION KUMAMOTO UNIVERSITY, priority 2018, published 2021).

What was measured:
virus protein Gag = target: T1, virus protein Gag (Human immunodeficiency virus type 1 group M subtype B, UniProt P12493); test: Intracellular aggregation of virus protein Gag (fluorescence microscope); format: cell-based; settings: HeLa cells, 10 μM, 4 hours
T1 construct: aggregation of virus protein Gag or the MA region thereof; Venus; FLAG (C); expressed in transfected cells; host or cells: HeLa cells
Experimental: HeLa cells (0.5×10^5 cells/well, culture fluid: 300 μL) were seeded in a 8-well chamber slide (Thermo fisher scientific) to be cultured overnight. […] (Thermo fisher scientific) was used to introduce pUC or pEF-Gag(p17)cFLAG, pNL4-3/Gag-Venus, and the resultant was cultured for 10 hours. Thereafter, DMSO (1%, Fujifilm Wako Pure Chemical Corporation) or Pro-IP6 (final concentration: 10 μM) was added thereto, followed by culturing for another 4 hours. The thus obtained cells were fixed with 4% paraformaldehyde (Tokyo Chemical Industry Co., Ltd.), dyed with Hoechst 33342 (Thermo fisher scientific), and observed with a fluorescence microscope, BZ-X800 (Keyence).

TRAF6 = test: Western blotting (2), anti-TRAF6 antibody, Jurkat cell; format: cell-based, human; settings: 1 μM or 10 μM, 8 hours or 24 hours
Experimental: In this example, in the same manner as in Example 4, the action mechanism for killing cells by Pro-IP6 was checked by Wester blotting using a Jurkat cell and various antibodies. Jurkat cells (1×10^5 cells/well, culture fluid: 500 μL) were seeded in a 24-well plate to be cultured overnight. Thereafter, DMSO (1%, Fujifilm Wako Pure Chemical Corporation), an aqueous solution (1%) of IP6 (final concentration 10 μM, Sigma Aldrich), or a DMSO solution (1%) of Pro-IP6 (final concentration: 1 μM or 10 μM) was added thereto, followed by culturing for 8 hours or 24 hours. A supernatant was removed, the resultant was washed with 1× PBS (−) once, Laemmli sample buffer was added thereto, and the resultant was boiled at 100° C. for […] to dissolve the cells. The resultant was subjected to electrophoresis and then transferred onto a membrane (Millipore). […] Detection was performed using ImmunoStar LD (Fujfilm Wako Pure Chemical Corporation).

## CCCC(=O)OCOP(=O)(OCOC(=O)CCC)O[C@H]1[C@H](OP(=O)(OCOC(=O)CCC)OCOC(=O)CCC)[C@@H](OP(=O)(OCOC(=O)CCC)OCOC(=O)CCC)[C@H](OP(=O)(OCOC(=O)CCC)OCOC(=O)CCC)[C@@H](OP(=O)(OCOC(=O)CCC)OCOC(=O)CCC)[C@H]1OP(=O)(OCOC(=O)CCC)OCOC(=O)CCC [Pro-IP6, myo-inositol hexaphosphate dodecakis(butyryloxymethyl) ester]
Virus protein Gag
  aggregation of virus protein Gag or MA region in cell: aggregated
TRAF6
  expression of TRAF6: inhibits expression of TRAF6
